Measurements taken from ChEMBL document CHEMBL1201862, “PubChem BioAssay data set” (2004).
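Where inhibition never reached the appropriate level, the endpoint shown equals the highest concentration tested. Otherwise, values were interpolated linearly from a five-concentration, 48-hour dose response in 96-well plates. GI50 is the concentration that inhibits growth by half.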 The source made the active and inactive calls. Rule as the data show it: active = GI50 up to about 1.1 µM and inactive = higher.

Legend:
Assay in all cases: NCI tumour cell line growth inhibition, 48 h
BT-549 = test system: BT-549
HCC 2998 = test system: HCC 2998
HCT-15 = test system: HCT-15
HL-60 = test system: HL-60
MCF7 = test system: MCF7
MDA-MB-435 = test system: MDA-MB-435
MDA-N = test system: MDA-N
NCI-H23 = test system: NCI-H23
OVCAR-3 = test system: OVCAR-3
OVCAR-4 = test system: OVCAR-4
SF-295 = test system: SF-295
TK-10 = test system: TK-10
U-251 = test system: U-251
UACC-257 = test system: UACC-257
HOP-62 = test system: HOP-62
K562 = test system: K562
RPMI-8226 = test system: RPMI-8226
SR = test system: SR
SK-OV-3 = test system: SK-OV-3

| SMILES | GI50 (BT-549) | GI50 (HCC 2998) | GI50 (HCT-15) | GI50 (HL-60) | GI50 (MCF7) | GI50 (MDA-MB-435) | GI50 (MDA-N) | GI50 (NCI-H23) | GI50 (OVCAR-3) | GI50 (OVCAR-4) | GI50 (SF-295) | GI50 (TK-10) | GI50 (U-251) | GI50 (UACC-257) | GI50 (HOP-62) | GI50 (K562) | GI50 (RPMI-8226) | GI50 (SR) | GI50 (SK-OV-3) |
| --- | --- | --- | --- | --- | --- | --- | --- | --- | --- | --- | --- | --- | --- | --- | --- | --- | --- | --- | --- |
| CCOC(=O)CC(=O)Nc1c(C(=O)OCC)sc2nc(SC)nc(Nc3ccc(OC)c(OC)c3)c12 | 27.5 µM (inactive) | > 100 µM (inactive) | 39.9 µM | > 100 µM (inactive) | 38.2 µM (inactive) | > 100 µM (inactive) | > 100 µM (inactive) | 19.1 µM (inactive) | 10.7 µM (inactive) | 66.2 µM (inactive) | 7.59 µM (inactive) | 17.8 µM (inactive) | 6.4 µM (inactive) | > 100 µM (inactive) | – | – | – | – | – |
| CN(C)c1ccc2oc(=O)c3ccccc3c2c1 | 34.4 µM (inactive) | > 100 µM (inactive) | > 100 µM | > 100 µM (inactive) | – | > 100 µM (inactive) | > 100 µM (inactive) | 22.9 µM (inactive) | > 100 µM (inactive) | > 100 µM (inactive) | 28.8 µM (inactive) | 39.7 µM (inactive) | 25.3 µM (inactive) | > 100 µM (inactive) | 21 µM (inactive) | > 100 µM (inactive) | > 100 µM (inactive) | > 100 µM (inactive) | – |
| O=C1CCc2cc3c(cc21)CC1(Cc2ccccc2C1)C3 | – | 8.75 µM (inactive) | 13.8 µM | 2.43 µM (inactive) | 9.29 µM (inactive) | 2.58 µM (inactive) | 2.16 µM (inactive) | 26.9 µM (inactive) | 8.75 µM (inactive) | 50.1 µM (inactive) | 6.43 µM (inactive) | 30.3 µM (inactive) | 7.96 µM (inactive) | 19.6 µM (inactive) | 9.73 µM (inactive) | 2.09 µM (inactive) | 6.27 µM (inactive) | 1.86 µM (inactive) | 14 µM (inactive) |
| Cc1c(Cl)c(C)c(Cl)c(O)c1Cl | 24.3 µM (inactive) | 19.8 µM (inactive) | 21.8 µM | 18.7 µM (inactive) | 31.6 µM (inactive) | 18.9 µM (inactive) | 24.6 µM (inactive) | 28.1 µM (inactive) | 19.5 µM (inactive) | 26 µM (inactive) | 24.8 µM (inactive) | 22.1 µM (inactive) | 16.3 µM (inactive) | 22.1 µM (inactive) | 31.9 µM (inactive) | 17.5 µM (inactive) | 17.3 µM (inactive) | – | 26.5 µM (inactive) |
| OCC1OC(c2cccc3cc(O)c(O)cc23)CC1O (centres undefined) | > 100 µM (inactive) | > 100 µM (inactive) | > 100 µM | 42.3 µM (inactive) | > 100 µM (inactive) | > 100 µM (inactive) | > 100 µM (inactive) | – | 94.8 µM (inactive) | > 100 µM (inactive) | > 100 µM (inactive) | > 100 µM (inactive) | > 100 µM (inactive) | > 100 µM (inactive) | > 100 µM (inactive) | > 100 µM (inactive) | > 100 µM (inactive) | – | > 100 µM (inactive) |
| O=C(c1cccc2cc(O)ccc12)c1cn(CCN2CCOCC2)c2ccccc12 | 23.4 µM (inactive) | – | – | 28.2 µM (inactive) | 25.5 µM (inactive) | – | 25.2 µM (inactive) | 33.3 µM (inactive) | – | – | – | 21.6 µM (inactive) | – | 21.7 µM (inactive) | 22 µM (inactive) | 60.1 µM (inactive) | 47.1 µM (inactive) | 50.2 µM (inactive) | – |
| CCc1n[nH]c(=O)n1/N=C/c1ccc(C)cc1 | > 100 µM (inactive) | > 100 µM (inactive) | > 100 µM | 1.37 µM (inactive) | > 100 µM (inactive) | > 100 µM (inactive) | > 100 µM (inactive) | > 100 µM (inactive) | 69.5 µM (inactive) | 58.5 µM (inactive) | > 100 µM (inactive) | 60.3 µM (inactive) | > 100 µM (inactive) | 97.7 µM (inactive) | 37.7 µM (inactive) | > 100 µM (inactive) | 72.1 µM (inactive) | – | > 100 µM (inactive) |
| Oc1nc(S)nc(SCc2c(Cl)c(Cl)c(Cl)c(Cl)c2Cl)n1 | > 80.2 µM (inactive) | – | 49 µM | 20.1 µM (inactive) | 37.2 µM (inactive) | 36.9 µM (inactive) | 47.4 µM (inactive) | 55.7 µM (inactive) | 15.3 µM (inactive) | 21.9 µM (inactive) | > 100 µM (inactive) | > 80.2 µM (inactive) | > 100 µM (inactive) | > 88.3 µM (inactive) | 38.7 µM (inactive) | 15.3 µM (inactive) | 7.18 µM (inactive) | 0.184 µM (active) | > 96.4 µM (inactive) |
| Cc1csc(N/C=C2\C(=O)Oc3ccccc3C2=O)n1 | 25.6 µM (inactive) | – | 22.5 µM | – | 25.9 µM (inactive) | 24.9 µM (inactive) | 33.2 µM (inactive) | 18.2 µM (inactive) | 26.7 µM (inactive) | 32.7 µM (inactive) | – | 17.1 µM (inactive) | 26.2 µM (inactive) | 45.2 µM (inactive) | – | 81.7 µM (inactive) | – | – | 7.05 µM (inactive) |
| COc1cccc(CC2C(=O)N/C(=N\C(C)=O)N2C)c1OC(C)=O (centres undefined) | > 100 µM (inactive) | > 100 µM (inactive) | > 100 µM | > 100 µM (inactive) | > 100 µM (inactive) | > 100 µM (inactive) | > 100 µM (inactive) | > 100 µM (inactive) | > 100 µM (inactive) | > 100 µM (inactive) | > 100 µM (inactive) | > 100 µM (inactive) | > 100 µM (inactive) | > 100 µM (inactive) | > 100 µM (inactive) | – | – | – | > 100 µM (inactive) |
| CCCOc1ccc(-c2nc(-c3ccc(/N=C/c4ccc(N(CCOS(C)(=O)=O)CCOS(C)(=O)=O)cc4C)cc3)cs2)cc1 | – | 12 µM (inactive) | 23.4 µM | 5.05 µM (inactive) | 15.2 µM (inactive) | 33.8 µM (inactive) | 28.7 µM (inactive) | 10.1 µM (inactive) | 18.2 µM (inactive) | 34.1 µM (inactive) | 3.73 µM (inactive) | 18.8 µM (inactive) | 27.9 µM (inactive) | 38 µM (inactive) | 8 µM (inactive) | 22.5 µM (inactive) | 61.1 µM (inactive) | 3.85 µM (inactive) | 5.93 µM (inactive) |
| CCOC(=O)C1(C#N)CC1 | > 100 µM (inactive) | > 100 µM (inactive) | > 100 µM | > 100 µM (inactive) | > 100 µM (inactive) | – | > 100 µM (inactive) | > 100 µM (inactive) | – | > 100 µM (inactive) | > 100 µM (inactive) | > 100 µM (inactive) | > 100 µM (inactive) | > 100 µM (inactive) | > 100 µM (inactive) | > 100 µM (inactive) | – | > 100 µM (inactive) | > 100 µM (inactive) |
| N=c1[nH]cnc2c1nnn2C1C=CC(COS(N)(=O)=O)C1 (centres undefined) | – | 6.53 µM (inactive) | 6.5 µM | 3.42 µM (inactive) | 10.4 µM (inactive) | 4.24 µM (inactive) | 3.94 µM (inactive) | 1.95 µM (inactive) | 10.7 µM (inactive) | 6.84 µM (inactive) | 16.7 µM (inactive) | 3.18 µM (inactive) | 4.15 µM (inactive) | 14.7 µM (inactive) | 9.91 µM (inactive) | 5.47 µM (inactive) | 3.59 µM (inactive) | 18 µM (inactive) | 24.6 µM (inactive) |
| CCCCCCCCCN1CCC(=O)C(C(=O)OC)C1 (centres undefined) | – | 19.5 µM (inactive) | 13.4 µM | 1.53 µM (inactive) | 12.3 µM (inactive) | 14.7 µM (inactive) | 16 µM (inactive) | 2.96 µM (inactive) | 15.5 µM (inactive) | 2.29 µM (inactive) | 17.3 µM (inactive) | 16.7 µM (inactive) | – | 11 µM (inactive) | 16.9 µM (inactive) | – | 15.6 µM (inactive) | 3.86 µM (inactive) | 16.4 µM (inactive) |
| CCOC(=O)C1C(=O)CC(C)(O)C(C(=O)OCC)C1c1ccc(O)c(OC)c1 (centres undefined) | > 100 µM (inactive) | > 100 µM (inactive) | > 100 µM | > 100 µM (inactive) | > 100 µM (inactive) | > 100 µM (inactive) | > 100 µM (inactive) | > 100 µM (inactive) | > 100 µM (inactive) | > 100 µM (inactive) | > 100 µM (inactive) | > 100 µM (inactive) | > 100 µM (inactive) | > 100 µM (inactive) | > 100 µM (inactive) | > 100 µM (inactive) | – | > 100 µM (inactive) | – |
| N#CC(C#N)/N=N/c1ccc(-c2nc3ccccc3s2)cc1 | 5.19 µM (inactive) | – | 3.59 µM | – | 4.53 µM (inactive) | 5.6 µM (inactive) | 4.93 µM (inactive) | 2.93 µM (inactive) | – | 6.49 µM (inactive) | – | 3.98 µM (inactive) | – | 3.1 µM (inactive) | – | – | 1.51 µM (inactive) | 3.23 µM (inactive) | – |
| COc1cc(/C=N\N(C)C)cc(/C=N/N(C)C)c1O | 13.4 µM (inactive) | – | 88.1 µM | 9.71 µM (inactive) | > 100 µM (inactive) | 25.9 µM (inactive) | 25.9 µM (inactive) | > 100 µM (inactive) | 17.3 µM (inactive) | 49.2 µM (inactive) | 2.9 µM (inactive) | 55.7 µM (inactive) | 21.1 µM (inactive) | 28.6 µM (inactive) | 39.3 µM (inactive) | – | 19.6 µM (inactive) | 12.5 µM (inactive) | 15.5 µM (inactive) |
| CCOC(=O)/C(=C/NC(=S)Nc1c(CC)cccc1C(C)(C)C)C(=O)c1ccccc1 | – | > 100 µM (inactive) | > 100 µM | 59.3 µM (inactive) | 88.9 µM (inactive) | > 100 µM (inactive) | > 100 µM (inactive) | > 100 µM (inactive) | – | > 100 µM (inactive) | > 100 µM (inactive) | – | > 100 µM (inactive) | > 100 µM (inactive) | > 100 µM (inactive) | 42.2 µM (inactive) | 88.9 µM (inactive) | > 100 µM (inactive) | > 100 µM (inactive) |
